# Values of other authors, collected in article PMC3074188 (Journal of natural products, 2010).
# System: HT-29 cell line
smiles,measurement,value
CC(C)C[C@H](NC(=O)[C@H](Cc1ccccc1)NC(=O)c1cnccn1)B(O)O [bortezomib],sensitivity of HT-29 cell line (in words),sensitive
